This note sets out measurements from patent US20250179073A1, “TRICYCLIC HETEROCYCLE COMPOUNDS AS IAP ANTAGONISTS” (Ascentage Pharma (Suzhou) Co., Ltd., priority 2022, published 2025).

One assay concerns MDA-MB-231 cells. Kind of assay: Cell proliferation assay (CellTiter-Glo), MDA-MB-231. It is filed as cell-based. As to conditions: Homo sapiens, MDA-MB-231, 72 h, 72 h treatment, Celltiter-Glo luminescence. An outline of the steps: (§1)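 MDA-MB-231 (RPMI-1640/10% FBS) and EVSA-T (MEM/10% FBS) cells, 10000 cells/well, exposed 72 h to compound at […]. Viability read by CellTiter-Glo luminescence after 15 min at room temperature. IC50 from control-normalised curve fitting.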
In general terms: In ATP-based viability assays light output follows the ATP content of the culture.

The test system of the next assay is EVSA-T cells. Kind of assay: Cell proliferation assay (CellTiter-Glo), EVSA-T. It is filed as cell-based. As to conditions: Homo sapiens, EVSA-T, 72 h, 72 h treatment, Celltiter-Glo luminescence. An outline of the steps: as §1

Consider `Cc1ncc2c(Cc3ccc(F)cc3)cc3c(n12)C(C)(C)CN3C(=O)CN1C[C@@H](C)NC[C@@H]1CN1CCOC[C@H]1C` [Compound 2, 1-(4-(4-fluorobenzyl)-1,8,8-trimethyl-7,8-dihydro-6H-imidazo[1,5-a]pyrrolo[2,3-e]pyridin-6-yl)-2-((2R,5R)-5-methyl-2-(((R)-3-methylmorpholino)methyl)piperazin-1-yl)ethan-1-one], for which the IC50 – broadly, the point on the concentration scale where inhibition reaches its midpoint – in the assay on MDA-MB-231 cells is 110 nM; in the assay with EVSA-T cells it was 13 nM.
In the case of `C[C@@H]1CN(CC(=O)N2CC(C)(C)c3c2cc(Cc2ccc(F)cc2)c2ccnn32)[C@@H](CN2CCOC[C@H]2C)CN1` [Compound 148, 1-(4-(4-fluorobenzyl)-8,8-dimethyl-7,8-dihydro-6H-pyrazolo[1,5-a]pyrrolo[2,3-e]pyridin-6-yl)-2-((2R,5R)-5-methyl-2-(((R)-3-methylmorpholino)Methyl)piperazin-1-yl)ethan-1-one], the figures for the IC50 in the assay on MDA-MB-231 cells and with EVSA-T cells were 100 nM and 6 nM, respectively.
Consider `C[C@@H]1CN(CC(=O)N2CC(C)(C)c3c2cc(Cc2ccc(F)cc2)c2nnc(C4CC4)n32)[C@@H](CN2CCOC[C@H]2C)CN1` [Example 12, 1-(1-cyclopropyl-4-(4-fluorobenzyl)-8,8-dimethyl-7,8-dihydro-6H-pyrrolo[2,3-e][1,2,4]triazolo[4,3-a]pyridin-6-yl)-2-((2R,5R)-5-methyl-2-(((R)-3-methylmorpholino)methyl)piperazin-1-yl)ethan-1-one], for which the IC50 with MDA-MB-231 cells stood at 190 nM; with EVSA-T cells, 12 nM.
As to `C[C@@H]1CN(CC(=O)N2CC(C)(C)c3c2cc(Cc2ccc(F)cc2)c2ncnn32)[C@@H](CN2Cc3cc(F)ccc3C2=O)CN1` [Compound 100, 5-fluoro-2-(((2R,5R)-1-(2-(4-(4-fluorobenzyl)-8,8-dimethyl-7,8-dihydro-6H-pyrrolo[2,3-e][1,2,4]triazolo[1,5-a]pyridin-6-yl)-2-oxoethyl)-5-methylpiperazin-2-yl)methyl)isoindolin-1-one], the IC50 in the assay on MDA-MB-231 cells was determined as 21 nM; in the assay with EVSA-T cells, 4 nM.
The corresponding values for `C[C@@H]1CN(CC(=O)N2CC(C)(C)c3c2cc(Cc2ccc(F)cc2)c2nn(C(C)(C)CO)c(=O)n32)[C@@H](CN2CCOC[C@H]2C)CN1` [Compound 260, 4-(4-fluorobenzyl)-2-(1-hydroxy-2-methylpropan-2-yl)-8,8-dimethyl-6-(2-((2R,5R)-5-methyl-2-(((R)-3-methylmorpholino)methyl)piperazin-1-yl)acetyl)-2,6,7,8-tetrahydro-1H-pyrrolo[2,3-e][1,2,4]triazolo[4,3-a]pyridin-1-one] are 29 nM and 2.7 nM.
For `C[C@@H]1CN(CC(=O)N2CC(C)(C)c3c2cc(Cc2ccc(F)cc2)c2nc(-c4cncnc4)nn32)[C@@H](CN2CCOC[C@H]2C)CN1` [Compound 184, 1-(4-(4-fluorobenzyl)-8,8-dimethyl-2-(pyrimidin-5-yl)-7,8-dihydro-6H-pyrrolo[2,3-e][1,2,4]triazolo[1,5-a]pyridin-6-yl)-2-((2R,5R)-5-methyl-2-(((R)-3-methylmorpholino)methyl)piperazin-1-yl)ethan-1-one] the same measures were 17 nM and 6 nM.
The corresponding values for `C[C@@H]1CN(CC(=O)N2CC(C)(C)c3c2cc(Cc2ccc(F)cc2)c2nn(Cc4cnccn4)c(=O)n32)[C@@H](CN2CCOC[C@H]2C)CN1` [Compound 193, 4-(4-fluorobenzyl)-8,8-dimethyl-6-(2-((2R,5R)-5-methyl-2-(((R)-3-methylmorpholino)methyl)piperazin-1-yl)acetyl)-2-(pyrazin-2-ylmethyl)-2,6,7,8-tetrahydro-1H-pyrrolo[2,3-e][1,2,4]triazolo[4,3-a]pyridin-1-one] are 50 nM and 6 nM.
Turning to `C[C@@H]1CN(CC(=O)N2CC(C)(C)c3c2cc(C(F)c2ccc(F)cc2)c2ncnn32)[C@@H](CN2CCOC[C@H]2C)CN1` (stereo partly drawn) [Compound 138, 1-(4-(fluoro(4-fluorophenyl)methyl)-8,8-dimethyl-7,8-dihydro-6H-pyrrolo[2,3-e][1,2,4]triazolo[1,5-a]pyridin-6-yl)-2-((2R,5R)-5-methyl-2-(((R)-3-methylmorpholino)methyl)piperazin-1-yl)ethan-1-one], the figures for the IC50 in the assay on MDA-MB-231 cells and in the assay with EVSA-T cells were 160 nM and 33 nM, respectively.
The corresponding values for `C[C@@H]1CN(CC(=O)N2CC(C)(C)c3c2cc(Cc2ccc(F)cc2)c2ncnn32)[C@@H](CN2CCN(C3COC3)C[C@H]2C)CN1` [Compound 203, 1-(4-(4-fluorobenzyl)-8,8-dimethyl-7,8-dihydro-6H-pyrrolo[2,3-e][1,2,4]triazolo[1,5-a]pyridin-6-yl)-2-((2R,5R)-5-methyl-2-(((R)-2-methyl-4-(oxetan-3-yl)piperazin-1-yl)methyl)piperazin-1-yl)ethan-1-one] are 10 nM and 3 nM.
For `C[C@@H]1CN(CC(=O)N2CC(C)(C)c3c2cc(Cc2ccc(F)cc2)c2nc(C4COCCO4)nn32)[C@@H](CN2CCOC[C@H]2C)CN1` (stereo partly drawn) [Compound 206, 1-(2-(1,4-dioxan-2-yl)-4-(4-fluorobenzyl)-8,8-dimethyl-7,8-dihydro-6H-pyrrolo[2,3-e][1,2,4]triazolo[1,5-a]pyridin-6-yl)-2-((2R,5R)-5-methyl-2-(((R)-3-methylmorpholino)methyl)piperazin-1-yl)ethan-1-one] the same measures were 18 nM and 2 nM.
The corresponding values for `CC(C)c1nnc2c(Cc3ccc(F)cc3)cc3c(n12)C(C)(C)CN3C(=O)CN1C[C@@H](C)NC[C@@H]1CN1CCOC[C@H]1C` [Example 11, 1-(4-(4-fluorobenzyl)-1-isopropyl-8,8-dimethyl-7,8-dihydro-6H-pyrrolo[2,3-e][1,2,4]triazolo[4,3-a]pyridin-6-yl)-2-((2R,5R)-5-methyl-2-(((R)-3-methylmorpholino)methyl)piperazin-1-yl)ethan-1-one] are 170 nM and 10 nM.
For `COCc1nc2c(Cc3ccc(F)cc3)cc3c(n2n1)C(C)(C)CN3C(=O)CN1C[C@@H](C)NC[C@@H]1CN1CCOC[C@H]1C` [Compound 250, 1-(4-(4-fluorobenzyl)-2-(methoxymethyl)-8,8-dimethyl-7,8-dihydro-6H-pyrrolo[2,3-e][1,2,4]triazolo[1,5-a]pyridin-6-yl)-2-((2R,5R)-5-methy 1-2-(((R)-3-methylmorpholino)methyl)piperazin-1-yl)ethan-1-one], the IC50 with MDA-MB-231 cells was 18 nM; in the assay on EVSA-T cells it was 6.1 nM.
The corresponding values for `CCOC(=O)c1cn2c3c(cc(Cc4ccc(F)cc4)c2n1)N(C(=O)CN1C[C@@H](C)NC[C@@H]1CN1CCOC[C@H]1C)CC3(C)C` [Example 18, ethyl 4-(4-fluorobenzyl)-8,8-dimethyl-6-(2-((2R,5R)-5-methyl-2-(((R)-3-methylmorpholino)methyl)piperazin-1-yl)acetyl)-7,8-dihydro-6H-imidazo[1,2-a]pyrrolo[2,3-e]pyridine-2-carboxylate] are 74 nM and 14 nM.
The corresponding values for `Cc1nnc2c(Cc3ccc(F)cc3)cc3c(n12)C(C)(C)CN3C(=O)CN1C[C@@H](C)NC[C@@H]1CN1CCOC[C@H]1C` [Example 10, 1-(4-(4-fluorobenzyl)-1,8,8-trimethyl-7,8-dihydro-6H-pyrrolo[2,3-e][1,2,4]triazolo[4,3-a]pyridin-6-yl)-2-((2R,5R)-5-methyl-2-(((R)-3-methylmorpholino)methyl)piperazin-1-yl)ethan-1-one] are 350 nM and 27 nM.
For `C[C@@H]1CN(CC(=O)N2CC(C)(C)c3c2cc(Cc2ccc(F)cc2)c2nc(CO)nn32)[C@@H](CN2CCOC[C@H]2C)CN1` [Compound 37, 1-(4-(4-fluorobenzyl)-2-(hydroxymethyl)-8,8-dimethyl-7,8-dihydro-6H-pyrrolo[2,3-e][1,2,4]triazolo[1,5-a]pyridin-6-yl)-2-((2R,5R)-5-methyl-2-(((R)-3-methylmorpholino)methyl)piperazin-1-yl)ethan-1-one] the same measures were 71 nM and 4 nM.
For the compound `C[C@@H]1CN(CC(=O)N2CC(C)(C)c3c2cc(Cc2ccc(F)cc2)c2nn(CCO)c(=O)n32)[C@@H](CN2CCOC[C@H]2C)CN1` [Compound 201, 4-(4-fluorobenzyl)-2-(2-hydroxyethyl)-8,8-dimethyl-6-(2-((2R,5R)-5-methyl-2-(((R)-3-methylmorpholino)methyl)piperazin-1-yl)acetyl)-2,6,7,8-tetrahydro-1H-pyrrolo[2,3-e][1,2,4]triazolo[4,3-a]pyridin-1-one], the IC50 is 26 nM in the assay with MDA-MB-231 cells and 11 nM with EVSA-T cells.
The corresponding values for `C[C@@H]1CN(CC(=O)N2CC(C)(C)c3c2cc(Cc2ccc(F)cc2)c2nc(CC#N)nn32)[C@@H](CN2CCOC[C@H]2C)CN1` [Compound 196, 2-(4-(4-fluorobenzyl)-8,8-dimethyl-6-(2-((2R,5R)-5-methyl-2-(((R)-3-methylmorpholino)methyl)piperazin-1-yl)acetyl)-7,8-dihydro-6H-pyrrolo[2,3-e][1,2,4]triazolo[1,5-a]pyridin-2-yl)acetonitrile] are 43 nM and 4 nM.
The corresponding values for `C[C@@H]1CN(CC(=O)N2CC(C)(C)c3c2cc(Cc2ccc(F)cc2)c2ncnn32)[C@@H](CN2CCC(C)(O)C[C@H]2C)CN1` (stereo partly drawn) [Compound 77, 1-(4-(4-fluorobenzyl)-8,8-dimethyl-7,8-dihydro-6H-pyrrolo[2,3-e][1,2,4]triazolo[1,5-a]pyridin-6-yl)-2-((2R,5R)-2-(((2R)-4-hydroxy-2,4-dimethylpiperidin-1-yl)methyl)-5-methylpiperazin-1-yl)ethan-1-one] are 70 nM and 5 nM.
